# Measured values taken from patent US10738093B2, “Discovery of cationic nonribosomal peptides as Gram-negative antibiotics through global genome mining” (The Hong Kong University of Science and Technology, priority 2018, dated 2020).
# Where two headings read alike, the source gives them in different places. Positions of bridges follow the written chain, without caps; N, C: chain ends. Non-standard residues stand in square brackets, D forms with d. Residues, ends and D or L forms follow the SMILES beside them. *: point of attachment. Octanoyl(7-Me) = CC(C)CCCCCC(=O)*; dOrn = NCCC[C@@H](N)C(=O)O; Orn = NCCC[C@H](N)C(=O)O
# How the values were obtained:
# [1] = tested on: Escherichia coli ATCC 25922; test: microbe, parasite or virus in culture; format: cell-based
# Procedure: (§1) Minimum inhibitory concentration (MIC) was determined by broth microdilution according to CLSI guidelines. The test medium for most species was Mueller-Hinton broth (MHB). Bacteria were grown overnight to early stationary phase and adjusted in MHB to 5.0×10^5 colony-forming units per mL (c.f.u./mL) in the wells of 96-well microtiter plates, mixed with varying concentrations of test compounds and incubated at 37° C. for 24 h. […] MHBs containing 10% fetal bovine serum (Gibco), 21 mM MgCl, or 1.0 mg/ml LPS (lipopolysaccharides from Escherichia coli O55:B5, Sigma-Aldrich) were used to test their inhibitory effects.
# Acinetobacter baumannii = format: cell-based; details: Table 2; Acinetobacter baumannii
# Procedure: as §1
# Bacillus subtilis 168 = format: cell-based; details: Table 2; B. subtilis 168
# Procedure: as §1
# Candida albicans = format: cell-based; details: Table 2; Candida albicans
# Procedure: as §1
# [2] = tested on: Enterobacter cloacae NRRL-B-413; format: cell-based; details: Table 2; Enterobacter cloacae NRRL-B-413
# Procedure: as §1
# [3] = tested on: Methicillin-resistant Staphylococcus aureus ATCC 43300; format: cell-based; details: Table 2; Methicillin-resistant Staphylococcus aureus ATCC 43300
# Procedure: as §1
# [4] = tested on: Pseudomonas aeruginosa PAO1; format: cell-based
# Procedure: as §1
# [5] = tested on: Saccharomyces cerevisiae VL-48; test: MIC, Saccharomyces cerevisiae; format: cell-based; details: Table 2; Saccharomyces cerevisiae VL-48
# Procedure: as §1
# [6] = tested on: Colistin-resistant E. coli (E. coli ATCC 25922 carrying mcr-1); format: cell-based, Escherichia coli
# Procedure: as §1
# E. coli Top10 = format: cell-based, Escherichia coli; details: E. coli Top10
# Procedure: as §1
# [7] = tested on: Escherichia coli ATCC 25922; test: Resistance acquisition during serial passaging; format: cell-based; details: serial passaging at subinhibitory concentrations over 30 days
# Procedure: Escherichia coli ATCC 25922 was inoculated into MHB overnight at 37° C. with continuous shaking. Cells were diluted 10,000 times in MHB to about 1×10^6 c.f.u./mL. […] Plates with bacteria were incubated at 37° C. without shaking. […] This process was repeated for 30 d, and the final MIC was confirmed by the same antibacterial assay described above. The experiment was performed in quadruplicate, and on each day, the sample that developed the highest resistance was measured to plot the curve.
# [8] = Table 2, Escherichia coli ATCC 25922
# [9] = Table 2, Pseudomonas aeruginosa PAO1
Molecule,"MIC Ec [1, 8]",MIC Bs (Bacillus subtilis 168),MIC MRSA [3],"MIC Pa [4, 9]",other results
CC[C@H](C)[C@@H]1NC(=O)[C@@H](NC(=O)[C@@H](N)Cc2c[nH]c3ccccc23)[C@@H](C)OC(=O)[C@@H](CO)NC(=O)CNC1=O [Compound 4] (H-WTIG[dS]; ester 2-C),ND (ND >64 μg/ml),ND (ND >64 μg/ml),ND (ND >64 μg/ml),ND (ND >64 μg/ml),MIC Ab (Acinetobacter baumannii): ND (ND >64 μg/ml); MIC Ca (Candida albicans): ND (ND >64 μg/ml); MIC En [2]: ND (ND >64 μg/ml); MIC Sc [5]: ND (ND >64 μg/ml)
CC(C)CCCCCC(=O)N[C@H](CO)C(=O)N[C@H](Cc1ccc(O)cc1)C(=O)N[C@H](Cc1c[nH]c2ccccc12)C(=O)N[C@H](CCCN)C(=O)N[C@@H](CCCN)C(=O)NCC(=O)N[C@H](CCCN)C(=O)O [Compound 9] ({Octanoyl(7-Me)}-[dS][dY][dW][dOrn][Orn]G[dOrn]-OH),ND (ND >64 μg/ml),ND (ND >64 μg/ml),ND (ND >64 μg/ml),ND (ND >64 μg/ml),
CC[C@H](C)[C@@H]1NC(=O)[C@@H](NC(=O)[C@@H](N)Cc2c[nH]c3ccccc23)[C@@H](C)OC(=O)CNC(=O)CNC(=O)[C@H](CC(N)=O)NC1=O [Compound 8] (H-WTINGG; ester 2-C),ND (ND >64 μg/ml),ND (ND >64 μg/ml),ND (ND >64 μg/ml),ND (ND >64 μg/ml),
colistin [reference compound],,,,,MIC ([1]; E. coli ATCC 25922 + 10% serum): 2 to 4 µg/mL; MIC ([1]; E. coli ATCC 25922 + LPS (1.0 mg L^−1)): >64 µg/mL; MIC ([1]; E. coli ATCC 25922 + Mg^2+ (21 mM)): >64 µg/mL; MIC ([1]; Escherichia coli ATCC 25922): 2 µg/mL; MIC [6]: 16 µg/mL; MIC (E. coli Top10): 2 µg/mL; MIC ([4]; Pseudomonas aeruginosa PAO1): 1 µg/mL
"C[C@H]1COc2c(N3CCN(C)CC3)c(F)cc3c(=O)c(C(=O)O)cn1c23 [Levofloxacin, reference compound]",,,,,"MIC ([1]; Escherichia coli, ATCC25922, positive control of the mouse thigh study, read-out: MIC): 0.032 µg/mL"
NCCC[C@H](N)C(=O)NCC(=O)N[C@H](CCCN)C(=O)O [Compound 7] (H-[Orn]-Gly-[dOrn]-OH),ND (ND >64 μg/ml),ND (ND >64 μg/ml),ND (ND >64 μg/ml),ND (ND >64 μg/ml),
CC(C)CCCCCC(=O)N[C@H](CO)C(=O)N[C@H](Cc1ccc(O)cc1)C(=O)N[C@H](Cc1c[nH]c2ccccc12)C(=O)N[C@H](CCCN)C(=O)O [Compound 10] ({Octanoyl(7-Me)}-[dS][dY][dW][dOrn]-OH),ND (ND >64 μg/ml),ND (ND >64 μg/ml),ND (ND >64 μg/ml),ND (ND >64 μg/ml),
CC[C@H](C)[C@H](NC(=O)[C@@H](NC(=O)[C@H](Cc1c[nH]c2ccccc12)NC(=O)[C@@H](CCCN)NC(=O)CNC(=O)[C@@H](CCCN)NC(=O)[C@@H](CCCN)NC(=O)[C@@H](Cc1c[nH]c2ccccc12)NC(=O)[C@@H](Cc1ccc(O)cc1)NC(=O)[C@@H](CO)NC(=O)CCCCCC(C)C)[C@@H](C)O)C(=O)N[C@@H](CC(N)=O)C(=O)NCC(=O)NCC(=O)O [Compound 11] ({Octanoyl(7-Me)}-[dS][dY][dW][dOrn][dOrn]G[dOrn]WTINGG-OH),,ND (ND >64 μg/ml),ND (ND >64 μg/ml),,MIC Ec ([1]; ATCC 25922): 16 µg/mL; MIC Pa ([4]; PAO1): 8 µg/mL
"O=C(O)c1cn(C2CC2)c2cc(N3CCNCC3)c(F)cc2c1=O [ciprofloxacin, reference compound]",,,,,development of resistance [7]: rapidly developed resistance
